Molecular target: T1, human P2X2 receptors (Homo sapiens, UniProt Q9UBL9)
T1 construct: expressed in transfected cells
T1 sequence (Q9UBL9 1-404 isoform Q9UBL9-2): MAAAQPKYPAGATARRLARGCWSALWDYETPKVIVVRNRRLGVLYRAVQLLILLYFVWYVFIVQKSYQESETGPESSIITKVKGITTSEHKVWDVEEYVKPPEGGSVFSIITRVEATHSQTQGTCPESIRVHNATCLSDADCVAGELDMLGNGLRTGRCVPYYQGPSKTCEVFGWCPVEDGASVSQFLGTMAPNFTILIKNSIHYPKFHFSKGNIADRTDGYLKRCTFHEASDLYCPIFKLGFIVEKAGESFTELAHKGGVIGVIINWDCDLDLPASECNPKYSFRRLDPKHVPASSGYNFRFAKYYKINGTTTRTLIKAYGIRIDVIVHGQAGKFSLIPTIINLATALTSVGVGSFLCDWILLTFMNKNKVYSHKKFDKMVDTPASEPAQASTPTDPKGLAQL
Assay: Whole-cell patch-clamp concentration-activation, HEK293 cells stably expressing hP2X2
Assay type: cell-based
Description: Human P2X receptors were expressed from HEK293 cell lines containing an inducible promoter system (Flp-In-T-REx 293, Invitrogen, Waltham, MA, USA). The used cell lines were: hP2X2 B (RRID: AC line CVCL_D6U1), hP2X3 (RRID: AC line CVCL_D6U3), and hP2X2/3 (RRID: AC line CVCL_D6U2). The cells were cultured in MEM supplemented with non-essential amino acids (Gibco, Waltham, MA, USA), 10% FCS, and antibiotics, according to the manufacturer’s instructions. For stable cell lines, Flp-In-T-REx 293 cells were transfected using the calcium phosphate method with a mixture of plasmids (0.3 µg pcDNA5/FRT/TO P2X gene and 1.5 µg pOG44) and selected for hygromycin resistance. The cells were seeded on glass coverslips for electrophysiological measurements and used 24–48 h after tetracycline induction ([…]).
Membrane currents were recorded with a standard patch-clamp technique in the whole-cell configuration. The patch pipettes were pulled from borosilicate glass (ID 1.0 mm, OD 2.0 mm; VITROCOM, Mountain Lakes, NJ, USA) using a micropipette puller (P-97, Sutter Instrument, Novato, CA, USA). The pipettes were filled with intracellular solution containing (mM) 142 NaCl, 5 BAPTA, 5 EGTA, and 10 HEPES at pH 7.4. The pipette resistance was from 2.0 to 6.0 MΩ. The bath solution contained (mM) 142 NaCl, 10 EGTA, 10 HEPES, and 10 glucose at pH 7.4. To increase the speed of recovery from the hP2X3 receptors, we additionally used a bath solution containing (mM) 142 NaCl, 10 HEPES, 10 glucose, 2 CaCl2, and 1 MgCl2. The cells were lifted for recording from the chamber bottom by the patch pipette and positioned in front of the outlet of the application pipette.
Solutions switches were carried out with the application pipette that had three barrels (inner diameter ~600 µm, Warner Instruments) controlled by a step motor (SF-77B, Warner Instruments). The speed of the laminar solution flow out of the barrels was estimated to be 2–5 cm/s. One barrel contained a control solution and another was connected to a solution selector (Vici Valco Instruments), which allowed us to apply different test solutions by exchanging the solution during the interval (60 sec for P2X2 and P2X2/3 receptors, 180 s for P2X3 receptors) of applying the control solution. Cells expressing hP2X3 were washed with 3 Units/mL apyrase for 30 min to remove ATP. To ensure the comparability of the data points between each application, we rinsed hP2X3 with the following solution for 3 min after each ATP application (mM): 142 NaCl, 10 HEPES, 10 glucose, 2 CaCl2, and 1 MgCl2 at pH 7.4. After sufficient recovery, we switched to the bath solution for 10 s and then to the solution of interest. The speed of the switch around a whole cell was estimated to be below 10 ms by switching between different salt solutions.
The saturation of activation was determined with ATP at 100 µM. The currents were recorded with a HEKA EPC 10 amplifier in combination with the patchmaster software. The sampling rate was 10 kHz and the recordings were on-line filtered at 2.9 kHz using a four-pole Bessel filter. The currents were recorded at a constant holding potential of −50 mV and the series resistance was compensated with the patchmaster software up to 80%.
The concentration–activation relationships from whole-cell measurements in the HEK293 cells were obtained from the maximum currents during ATP application. These current amplitudes were normalised with respect to the current at saturating ATP (100 µM) and the resulting data points were fitted I/ImaxATP = Amp/(1 + (EC50/[X])^h) (1) with the Origin 2019® software using a non-linear curve fitting routine. I is the actual current amplitude and ImaxATP is the maximum current amplitude at saturating ATP. The amplitude Amp is the efficacy of the respective ligands. EC50 is the ligand concentration generating the half-maximum current and h is the respective Hill coefficient. [X] is the actual concentration of ATP to be tested. […]

SMILES | Hill (hP2X2, Hill coefficient of concentration-activation fit) | Effect (Fold in ATP Potency) (hP2X2, relative to ATP) [fold] | Effect (Fold in ATP Efficacy) (hP2X2, relative to current at 100 µM ATP) [fold] | Agonist behaviour (current response) (hP2X2, result in words) | EC50 (hP2X2, whole-cell, -50 mV, divalent-cation-free bath with 10 mM EGTA, normalised to 100 µM ATP) [µM] | Elevation of activation level on co-application with ATP (hP2X2, 10 µM α,βMe-fATP co-applied with 0.1 µM ATP, versus ATP alone) | Effect of ligand alone on current (hP2X2, α,βMe-fATP alone (10 µM))
COCC[N+]1=C(C=CC=C2N(CCCCCC(=O)NCCCCCCSc3nc(N)c4ncn(C5OC(COP(=O)(O)OP(=O)(O)OP(=O)(O)O)C(O)C5O)c4n3)c3ccc(S(=O)(=O)O)cc3C2(C)C)C(C)(C)c2cc(S(=O)(=O)[O-])ccc21 (stereo not shown) [fATP, 2-[DY-547P1]-AHT-ATP] | 1.4 ± 0.1 | 0.2 | 1.0 | full agonist | 4.6 ± 0.3 |  | 
COCC[N+]1=C(C=CC=C2N(CCCCCC(=O)NCCCCCCSc3nc(N)c4ncn(C5OC(COP(=O)(O)CP(=O)(O)OP(=O)(O)O)C(O)C5O)c4n3)c3ccc(S(=O)(=O)O)cc3C2(C)C)C(C)(C)c2cc(S(=O)(=O)[O-])ccc21 (stereo not drawn) [α,βMe-fATP, 2-[DY-547P1]-AHT-α,βMe-ATP] |  |  |  |  |  | approximately 55% | no discernible effect
